Measurements: patent US11382985B2, “Anti-tumour immune responses to modified self-epitopes” (Scancell Limited, priority 2015, dated 2022)
Square brackets hold non-standard residues; d marks the D form. Ends that are not written are not given here. Cit = NC(=O)NCCC[C@H](N)C(=O)O

Assays:
[1] = tested on: splenocytes; test: Peptide immunisation and ex vivo Elispot, DR4 mice; format: in vivo, HLA-DR4 transgenic mouse; conditions: for IFNγ response to 15mer peptide spanning 241-260: label = 15mer used for restimulation; for IFNγ response to the human sequence / IFNγ response to the mouse sequence: single immunisation of the human citrullinated peptide
Procedure: (§1) C57BL/6 mice (Charles River, UK), HLA-DR4 mice (Taconic, USA), HHDII/DR1 mice (Pasteur institute, France) and the HHD/HLA-DP4 transgenic strain of mouse as described in patent WO2013/017545 A1 (EMMA repository, France) were used, aged between 8 and 12 weeks, and cared for by the staff at Nottingham Trent University. All work was carried out under a Home Office project licence. Peptides were dissolved in PBS to 1 mg/ml and then emulsified (a series of dilutions) with different adjuvants: CpG and MPLA 6 μg/mouse of each (Invivogen, UK), Incomplete Freund's 50 μl/mouse (Sigma, UK), poly I:C 10 μg/mouse (Invivogen, UK), Imiquimod 25 μg/mouse (Invivogen, UK) and GMCSF 10 μg/mouse (Peprotech, UK). Peptides (25 μg/mouse) were injected subcutaneously at the base of the tail. DNA (1 μg/mouse) was coated onto 1.0 μm gold particles (BioRad, Hemel Hempstead, UK) using the manufacturer's instructions and administered intradermally by genegun (BioRad). Homspera (10 nM/mouse) (PeptideSynthetics, UK) was injected intradermally with genegun immunisation. Mice were immunized at either day 0 for peptide immunisation or days, 0 and 7 for genegun immunisation, unless otherwise stated. Spleens were removed for analysis at day 14 for peptide and day 20 for peptide or genegun immunisation unless stated otherwise.
(§2) Elispot assays were performed using murine IFNγ, IL-17 and IL-10 capture and detection reagents according to the manufacturer's instructions (Mabtech, Sweden). In brief, anti-IFNγ, IL-17 and IL-10 antibodies were coated onto wells of 96-well Immobilin-P plate. Synthetic peptides (at a variety of concentrations) and 5×10^5 per well splenocytes were added to the wells of the plate in triplicate. Tumour target cells were added where relevant at 5×10^4/well in triplicate and plates incubated for 40 hrs at 37° C. After incubation, captured IFN and IL-10 were detected by biotinylated anti-IFNγ and IL-10 antibodies and developed with a streptavidin alkaline phosphatase and chromogenic substrate. Spots were analysed and counted using an automated plate reader (Cellular Technologies Ltd).

[2] = tested on: splenocytes; test: Screening of citrullinated Enolase peptide pools, ex vivo IFNγ Elispot, HHD/DR1 mice; format: in vivo, transgenic HHD/DR1 mouse; conditions: single immunisation with pool of 4-6 human citrullinated peptides, 20 μg each, CpG/MPLA, day 14, label = peptide used for restimulation
Procedure: as §1, §2
(§3) Screening was performed to identify potential citrullinated Enolase epitopes in mice. Mice were immunised with pools of 4-6 human citrullinated peptides. […] Each pool was administered as a single immunisation containing 20 μg of each peptide and CpG/MPLA as an adjuvant. After 14 days the mice were culled and the immune responses to each peptide within the immunising pool were assessed by ex vivo Elispot (FIG. 2). In addition, the splenocytes were screened against the murine equivalent sequences. We have previously shown that citrullinated peptides can induce responses in the transgenic DR4 mouse strain. Given that different mouse strains have different MHC repertoires a number of strains were used for screening. Peptide responses were assessed in C57BL/6 mice as well as transgenic strains expressing human DR4 or HHD/DR1 in a C57BL/6 background (see materials and methods).

[3] = tested on: splenocytes; test: Screening of citrullinated Enolase peptide pools, ex vivo IFNγ Elispot, C57BL/6 mice; format: in vivo, C57BL/6 mouse; conditions: single immunisation with pool of 4-6 human citrullinated peptides, 20 μg each, CpG/MPLA, day 14, label = peptide used for restimulation
Procedure: as §1, §2, §3

[4] = tested on: splenocytes; test: Peptide immunisation and ex vivo Elispot, DR1/HHD mice; format: in vivo, HHD/DR1 transgenic mouse; conditions: single immunisation of the human citrullinated peptide
Procedure: as §1, §2

[5] = tested on: splenocytes; test: Screening of citrullinated Enolase peptide pools, ex vivo IFNγ Elispot, DR4 mice; format: in vivo, transgenic DR4 mouse; conditions: single immunisation with pool of 4-6 human citrullinated peptides, 20 μg each, CpG/MPLA, day 14, label = peptide used for restimulation
Procedure: C57BL/6 mice (Charles River, UK), HLA-DR4 mice (Taconic, USA), HHDII/DR1 mice (Pasteur institute, France) and the HHD/HLA-DP4 transgenic strain of mouse as described in patent WO2013/017545 A1 (EMMA repository, France) were used, aged between 8 and 12 weeks, and cared for by the staff at Nottingham Trent University. All work was carried out under a Home Office project licence. Peptides were dissolved in PBS to 1 mg/ml and then emulsified (a series of dilutions) with different adjuvants: CpG and MPLA 6 μg/mouse of each (Invivogen, UK), Incomplete Freund's 50 μl/mouse (Sigma, UK), poly I:C 10 μg/mouse (Invivogen, UK), Imiquimod 25 μg/mouse (Invivogen, UK) and GMCSF 10 μg/mouse (Peprotech, UK). […]
Elispot assays were performed using murine IFNγ, IL-17 and IL-10 capture and detection reagents according to the manufacturer's instructions (Mabtech, Sweden). […] After incubation, captured IFN and IL-10 were detected by biotinylated anti-IFNγ and IL-10 antibodies and developed with a streptavidin alkaline phosphatase and chromogenic substrate. Spots were analysed and counted using an automated plate reader (Cellular Technologies Ltd).
Screening was performed to identify potential citrullinated Enolase epitopes in mice. […] After 14 days the mice were culled and the immune responses to each peptide within the immunising pool were assessed by ex vivo Elispot (FIG. 2). […]

[6] = tested on: splenocytes; test: Peptide immunisation and ex vivo Elispot, DP4 mice; format: in vivo, HHD/HLA-DP4 transgenic mouse
Procedure: as §1, §2

[7] = tested on: splenocytes; test: Peptide immunisation and ex vivo Elispot, C57Bl/6 mice; format: in vivo, C57Bl/6 mouse; conditions: C57Bl/6 mice immunised with the human citrullinated peptide
Procedure: as §1, §2

[8] = DR4 mice immunised with human 241cit

aa246-260: 15mer peptide spanning the Enolase 241-260 sequence (VAASEFFRSGKYDLD; UniProt P06733 246-260, looked up, fragment)
IFNγ response to 15mer peptide spanning 241-260 [1, 8]: no response

KGVPLY-CIT-HIADLAGNSEVIL [Enolase 126cit]
IFNγ response to peptide compared to media [2]: significant response
IFNγ response to peptide compared to media [3]: not
IFNγ response to the human sequence ([1]; DR4 mice): low level significant response
IFNγ response to the human sequence [4]: not

MSILRIHA-CIT-EIFDSRGNPTV [mouse 1cit]
IFNγ response to peptide compared to media [2]: did induce a response

VIGMDVAASEFY-CIT-SGKYDLD (VIGMDVAASEFY[Cit]SGKYDLD) [mouse 241cit]
IFNγ response to peptide compared to media [5]: significant response
IFNγ response in presence of human MHC class II blocking antibody (L243) ([1]; DR4 mice immunised with human 241cit, label = restimulating peptide): significantly reduced
time after immunisation at which IFNγ response is detectable ([1]; DR4 mice, single dose in CpG/MPLA, sacrificed after 2, 6 or 14 days): 2 days
IFNγ response compared to the wild type peptides ([6]; DP4 mice, three doses of human Enolase 241cit, label = restimulating peptide): increased IFNγ responses
IFNγ responses to citrullinated and wildtype peptide ([6]; DP4 transgenic mice immunised with the murine peptide, three doses): specific to the citrullinated peptide but not the wildtype

aa241-255: 15mer peptide spanning the Enolase 241-260 sequence (VIGMDVAASEFFRSG; UniProt P06733 241-255, looked up, fragment)
IFNγ response to 15mer peptide spanning 241-260 [1, 8]: stimulating specific responses

VGDDLTVTNPK-CIT-IAKAASEK [mouse 316cit]
IFNγ response to peptide compared to media [2]: not

VGDDLTVTNPK-CIT-IAKAVNEK [Enolase 316cit]
IFNγ response to peptide compared to media [2]: significant response
IFNγ response to the human sequence ([1]; DR4 mice): moderate response
IFNγ response to the mouse sequence ([1]; DR4 mice): not
IFNγ response to the human sequence [4]: moderate response
IFNγ response to the mouse sequence [4]: not

FKSPDDPS-CIT-YISPDQLADLY [human 261cit]
IFNγ response to peptide compared to media [3]: significant response

EVDLFTSKGLF-CIT-AAVPSGAS [Enolase 21cit]
IFNγ response to peptide compared to media [3]: significant response
IFNγ response to the human sequence ([1]; DR4 mice): not
IFNγ response to the mouse sequence ([1]; DR4 mice): low level but significant response
IFNγ response in presence of CD4 blocking antibody [7]: efficiently blocked
IFNγ response in presence of CD8 blocking antibody [7]: not
IFNγ response to the citrullinated peptide [7]: strong IFNγ responses

FKSPDDPS-CIT-YITPDQLADLY [mouse 261cit]
IFNγ response to peptide compared to media [3]: not

EVDLYTAKGLF-CIT-AAVPSGAS [mouse 21cit]
IFNγ response to peptide compared to media [3]: not

IFDScitGNPTVEVDLF [enolase 11cit]
IFN response to the equivalent murine sequence [7]: cross reacted
IFNγ response in presence of CD4 blocking antibody [7]: abrogated the response
IFNγ response in presence of CD8 blocking antibody [7]: no effect
IFNγ response to the citrullinated peptide [7]: IFN responses
IFNγ response to the wt peptide [7]: minimal reactivity
IL-10 response to the citrullinated peptide [7]: No IL-10 responses

MSILKIHA-CIT-EIFDSRGNPTV [Enolase 1-20]
IFNγ response to peptide compared to media [2]: did not induced a significant response

KGVPLY-CIT-HIADLAGNPEVIL [mouse 126cit]
IFNγ response to peptide compared to media [2]: not
IFNγ response to peptide compared to media [3]: significant response
